In assay [1] the test system is IL-17A-induced G-CSF production in human normal keratinocyte (NHK). Nature of the assay: NHK assay: IL-17A-induced G-CSF production in normal human keratinocytes. The class given is cell-based. The settings on record: IL-17A 5 ng/mL, 24 h, average if tested more than once. An outline of the steps: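 Stimulus rhIL-17A 5 ng/mL final, premixed 1 h rt with compound; adult NHK, 5% FBS, 0.2% DMSO. Viability by CellTiter-Glo vs DMSO.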

The target in a further assay is T1, IL-17A : IL-17RA binding (Homo sapiens, UniProt Q16552, K93Q).
T1 construct: Name: IL-17A-Flag
T1 sequence (Q16552 with tags, fused parts or gaps K93Q): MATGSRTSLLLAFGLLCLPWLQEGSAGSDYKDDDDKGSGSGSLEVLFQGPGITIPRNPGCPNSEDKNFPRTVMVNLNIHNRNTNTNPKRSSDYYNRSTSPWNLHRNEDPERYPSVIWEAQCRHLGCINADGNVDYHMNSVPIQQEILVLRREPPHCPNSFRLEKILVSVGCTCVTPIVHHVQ
Briefly: IL-17A(FLAG-tagged):IL-17RA(His-tagged) binding disruption Eu-HTRF assay, Protocol 1. Particulars: FLAG-IL-17A 2.5 nM at 2x final concentration; average if tested more than once. An outline of the steps:
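IC50 came from a one-site competition fit of the acceptor/donor (665/620 nm) HTRF ratio. His-tagged IL-17RA, Eu-anti-FLAG and D2-anti-His were added after a 1 h rt compound preincubation with FLAG-tagged IL-17A dimer in PBS/0.01% Triton X-100, followed by 2 h at rt before reading.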

Molecules are shown by their SMILES. Some results are limits rather than exact numbers.

For `C[C@@H](NC(=O)CCC(F)(F)F)c1ccc2[nH]c([C@@H](NC(=O)CC3CC3(F)F)C3CCC(F)(F)CC3)nc2c1` (single isomer, unassigned) [Example 108, N—((R)-1-(2-((S)-(4,4-Difluorocyclohexyl)(2-((S*)-2,2-difluorocyclopropyl)acetamido)methyl)-1H-benzo[d]imidazol-5-yl)ethyl)-4,4,4-trifluorobutanamide], the IC50 (in assay [1]; at IL-17A : IL-17RA binding) was above 100 nM each time.
Turning to `Cc1nonc1C(=O)N[C@H](c1nc2cc([C@H](NC(=O)CC(C)C(F)(F)F)C3CC3)ccc2[nH]1)[C@@H]1CCCC(F)(F)C1` (single isomer, unassigned) [Example 259, N—((S)-(5-((R)-Cyclopropyl((S*)-4,4,4-trifluoro-3-methylbutanamido)methyl)-1H-benzo[d]imidazol-2-yl)((R)-3,3-difluorocyclohexyl)methyl)-4-methyl-1,2,5-oxadiazole-3-carboxamide], the IC50 (in assay [1]; on IL-17A : IL-17RA binding) was 50 to 100 nM in each case.
For the compound `C[C@@H](OC[C@H](NC(=O)c1nonc1C1CC1)c1nc2ccc([C@H](NC(=O)CC3CC(F)(F)C3)C3CC3)cc2[nH]1)C(F)(F)F` (relative stereo) [Example 155, 4-Cyclopropyl-N—((R*)-1-(6-((R)-cyclopropyl(2-(3,3-difluorocyclobutyl)acetamido)methyl)-1H-benzo[d]imidazol-2-yl)-2-(((R)-1,1,1-trifluoropropan-2-yl)oxy)ethyl)-1,2,5-oxadiazole-3-carboxamide], the IC50 in assay [1] (Homo sapiens, Keratinocyte) is above 100 nM; on IL-17A : IL-17RA binding, below 50 nM.
The like results for `C[C@@H](NC(=O)CCC(F)(F)F)c1ccc2[nH]c([C@@H](NC(=O)c3cnc4n3CCC4)C3CCC(F)(F)CC3)nc2c1` [Example 211, N—((S)-(4,4-Difluorocyclohexyl)(5-((R)-1-(4,4,4-trifluorobutanamido)ethyl)-1H-benzo[d]imidazol-2-yl)methyl)-6,7-dihydro-5H-pyrrolo[1,2-a]imidazole-3-carboxamide] were, in that order, above 100 nM and above 100 nM.
For `CCn1nc(C(=O)N[C@H](c2nc3cc([C@@H](C)NC(=O)CCC(F)(F)F)ccc3[nH]2)C2CCC(F)(F)CC2)cc1C(F)(F)F` [Example 92, N—((S)-(4,4-Difluorocyclohexyl)(5-((R)-1-(4,4,4-trifluorobutanamido)ethyl)-1H-benzo[d]imidazol-2-yl)methyl)-1-ethyl-5-(trifluoromethyl)-1H-pyrazole-3-carboxamide] the same measures were above 100 nM and above 100 nM.
On to `Cc1nonc1C(=O)N[C@@H](CC(C)(C)C(F)(F)F)c1nc2ccc([C@H](NC(=O)CC(C)C(F)(F)F)C3CC3)cc2[nH]1` (single isomer, unassigned) [Example 180, N—((S)-1-(6-((R)-Cyclopropyl((S*)-4,4,4-trifluoro-3-methylbutanamido)methyl)-1H-benzo[d]imidazol-2-yl)-4,4,4-trifluoro-3,3-dimethylbutyl)-4-methyl-1,2,5-oxadiazole-3-carboxamide], for which the IC50 is above 100 nM in assay [1] and 50 to 100 nM at IL-17A : IL-17RA binding.
As for `C[C@@H](NC(=O)CCC(F)(F)F)c1ccc2nc([C@@H](NC(=O)c3cnn(CC4CC4)c3)C3CCC(F)(F)CC3)[nH]c2c1` [Example 61, 1-(Cyclopropylmethyl)-N—((S)-(4,4-difluorocyclohexyl)(6-((R)-1-(4,4,4-trifluorobutanamido)ethyl)-1H-benzo[d]imidazol-2-yl)methyl)-1H-pyrazole-4-carboxamide], the IC50 was above 100 nM in assay [1] (Homo sapiens, Keratinocyte) and above 100 nM at IL-17A : IL-17RA binding.
Consider `C[C@@H](NC(=O)CCC(F)(F)F)c1ccc2nc([C@@H](NC(=O)c3cnn(CC4CCC4)n3)C3CCC(F)(F)CC3)[nH]c2c1` [Example 62, 2-(Cyclobutylmethyl)-N—((S)-(4,4-difluorocyclohexyl)(6-((R)-1-(4,4,4-trifluorobutanamido)ethyl)-1H-benzo[d]imidazol-2-yl)methyl)-2H-1,2,3-triazole-4-carboxamide], for which the IC50 is above 100 nM in assay [1] (Homo sapiens, Keratinocyte) and above 100 nM on IL-17A : IL-17RA binding.
For the compound `CC(C)n1ncnc1C(=O)N[C@H](c1nc2cc([C@@H](C)NC(=O)CCC(F)(F)F)ccc2[nH]1)C1CCC(F)(F)CC1` [Example 199, N—((S)-(4,4-Difluorocyclohexyl)(5-((R)-1-(4,4,4-trifluorobutanamido)ethyl)-1H-benzo[d]imidazol-2-yl)methyl)-1-isopropyl-1H-1,2,4-triazole-5-carboxamide], the IC50 in assay [1] (Homo sapiens, Keratinocyte) was above 100 nM; at IL-17A : IL-17RA binding it was above 100 nM.
Turning to `CC(C)(OC[C@H](NC(=O)c1nonc1OCC(F)(F)F)c1nc2cc([C@H](NC(=O)CC3CC(F)(F)C3)C3CC3)ccc2[nH]1)C(F)(F)F` [Example 267, N—((R)-1-(5-((R)-Cyclopropyl(2-(3,3-difluorocyclobutyl)acetamido)methyl)-1H-benzo[d]imidazol-2-yl)-2-((1,1,1-trifluoro-2-methylpropan-2-yl)oxy)ethyl)-4-(2,2,2-trifluoroethoxy)-1,2,5-oxadiazole-3-carboxamide], the 50% inhibitory concentration (IC50) in assay [1] (Homo sapiens, Keratinocyte) is below 50 nM; on IL-17A : IL-17RA binding, below 50 nM.
On to `C[C@@H](NC(=O)CCC(F)(F)F)c1ccc2[nH]c([C@@H](NC(=O)[C@@H]3CC[C@@H]3CF)C3CCC(F)(F)CC3)nc2c1` (single isomer, unassigned) [Example 113], for which the IC50 in assay [1] (Homo sapiens, Keratinocyte) was above 100 nM; at IL-17A : IL-17RA binding, above 100 nM.
Take `CC(Cn1ncc(C(=O)N[C@H](c2nc3ccc([C@@H](C)NC(=O)CCC(F)(F)F)cc3[nH]2)C2CCC(F)(F)CC2)n1)C(F)(F)F` (single isomer, unassigned) [Example 69, N—((S)-(4,4-Difluorocyclohexyl)(6-((R)-1-(4,4,4-trifluorobutanamido)ethyl)-1H-benzo[d]imidazol-2-yl)methyl)-2-((R*)-3,3,3-trifluoro-2-methylpropyl)-2H-1,2,3-triazole-4-carboxamide]: the IC50 in assay [1] (Homo sapiens, Keratinocyte) was above 100 nM; on IL-17A : IL-17RA binding, above 100 nM.
Regarding `Cc1nonc1C(=O)N[C@@H](c1nc2ccc([C@H](NC(=O)CC3CC(F)(F)C3)C3CC3)cc2[nH]1)[C@@H]1CCCCO1` (relative stereo) [Example 249, N—((S*)-(6-((R)-Cyclopropyl(2-(3,3-difluorocyclobutyl)acetamido)methyl)-1H-benzo[d]imidazol-2-yl)((S*)-tetrahydro-2H-pyran-2-yl)methyl)-4-methyl-1,2,5-oxadiazole-3-carboxamide], the 50% inhibitory concentration (IC50) in assay [1] (Homo sapiens, Keratinocyte) is above 100 nM; on IL-17A : IL-17RA binding it was above 100 nM.
As for `C[C@@H](NC(=O)CCC(F)(F)F)c1ccc2nc([C@@H](NC(=O)c3cnn(CCC(F)F)n3)C3CCC(F)(F)CC3)[nH]c2c1` [Example 73, N—((S)-(4,4-Difluorocyclohexyl)(6-((R)-1-(4,4,4-trifluorobutanamido)ethyl)-1H-benzo[d]imidazol-2-yl)methyl)-2-(3,3-difluoropropyl)-2H-1,2,3-triazole-4-carboxamide], the half-maximal inhibitory concentration (IC50) was above 100 nM in assay [1] (Homo sapiens, Keratinocyte) and above 100 nM at IL-17A : IL-17RA binding.
Take `Cc1n[nH]cc1C(=O)N[C@H](c1nc2cc([C@@H](C)NC(=O)CCC(F)(F)F)ccc2[nH]1)C1CCC(F)(F)CC1` [Example 25, N—[(S)-(4,4-Difluorocyclohexyl)-[6-[(1R)-1-(4,4,4-trifluorobutanoylamino)ethyl]-1H-benzimidazol-2-yl]methyl]-3-methyl-1H-pyrazole-4-carboxamide]: the IC50 was above 100 nM in assay [1] (Homo sapiens, Keratinocyte) and above 100 nM on IL-17A : IL-17RA binding.

Usually IC50 stands for the midpoint of a concentration-inhibition curve.
